Measured values: US12344606B2, “Next-generation modulators of stimulator of interferon genes (STING)” (RYVU THERAPEUTICS S.A., priority 2019, dated 2025)
One block for each molecule: values may come before it.

Tests used:
human STING = human STING (Homo sapiens, UniProt Q86WV6); experiment: Fluorescence Thermal Shift assay (hSTING FTS binding assay); conditions: STING 0.1 mg/ml, 20 min preincubation, SyproOrange
Experimental: Compounds of the present invention were tested for binding to human STING in Fluorescence Thermal Shift assay. STING was preincubated with the compounds for 20 minutes in 50 mM Hepes, 150 mM NaCl, pH 7.5 in 16 μl volume, following by adding 4 μl of SyproOrange dye dilution (ThermoFisher, cat no. S-6651). Final STING concentration was 0.1 mg/ml. Thermal unfolding was performed in Real-Time PCR QuantStudio 6 Flex System (Applied Biosystems), from 25 to 99° C., with continuous ramp mode and ramp rate 0.033° C./s. The data were analyzed using Protein Thermal Shift Software (ThermoFisher).

[1] = test system: interferon regulatory factor (IRF) pathway in THP-1 dual cells; experiment: THP-1 Dual reporter assay, IRF pathway (luciferase); assay type: cell-based; conditions: Homo sapiens, THP1-Dual; 18 h stimulation, luminescence
Experimental: (§1) Compounds of the present invention were tested for their activity using THP-1 dual cells (Invivogen, cat no. thpd-nfis) allowing for simultaneous study of NF-κB pathway and the interferon regulatory factor (IRF) pathway. THP-1 dual cells contain luciferase reporter gene under the control of an ISG54 (interferon-stimulated gene) minimal promoter in conjunction with five interferon-stimulated response elements and a secreted embryonic alkaline phosphatase reporter gene under the control an IFN (interferon)-β minimal promoter fused to five copies of the NF-κB consensus transcriptional response element with three copies of the c-Rel binding site. Following 18 h of stimulation with STING agonist, medium was collected and transferred onto fresh cell culture plate. To verify activity of the IRF pathway, luminescence activity was measured with standard laboratory plate reader immediately after addition 10 μl of the medium to 50 μl (or 40 μl) of luminescence reagent (Invivogen, cat. No. rep-qlc2). To verify activity of NF-κB pathway, 20 μl (or 10 μl) of the medium was mixed with 80 μl of a detection medium (Invivogen, cat. No. rep-qb2) and incubated for 2 hours (or 1 hour) at 37° C. in a humidified atmosphere containing 5% CO2. Next, absorbance at 630 nm (or 655 nm) was recorded using standard laboratory plate reader.

[2] = test system: NF-κB pathway in THP-1 dual cells; experiment: THP-1 Dual reporter assay, NF-κB pathway (SEAP); assay type: cell-based; conditions: Homo sapiens, THP1-Dual; 18 h stimulation, absorbance; read-out: THP1 Dual EC50 (μM) NFkB
Experimental: as §1

Sequence of human STING (Q86WV6 whole entry H232R): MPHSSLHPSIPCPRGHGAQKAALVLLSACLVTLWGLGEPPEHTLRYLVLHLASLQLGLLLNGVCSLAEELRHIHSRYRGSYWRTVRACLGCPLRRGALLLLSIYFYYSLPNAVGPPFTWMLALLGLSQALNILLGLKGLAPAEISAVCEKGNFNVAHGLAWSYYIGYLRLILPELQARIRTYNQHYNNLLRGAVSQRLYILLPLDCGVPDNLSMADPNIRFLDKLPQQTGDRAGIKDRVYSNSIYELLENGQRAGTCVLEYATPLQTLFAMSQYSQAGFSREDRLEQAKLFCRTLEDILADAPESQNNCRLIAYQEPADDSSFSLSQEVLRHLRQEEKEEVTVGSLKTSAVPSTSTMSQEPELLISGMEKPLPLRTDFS

SMILES: Cc1cc(CN(Cc2cn(C)c3ccccc3c2=O)[C@H]2CCCN(c3nnc(C)o3)C2)ccn1 [Example 53, 1-methyl-3-({[(3S)-1-(5-methyl-1,3,4-oxadiazol-2-yl)piperidin-3-yl][(2-methylpyridin-4-yl)methyl]amino}methyl)-1,4-dihydroquinolin-4-one]
hSTING FTS binding assay (ΔT C.°) (human STING): + (ΔTm<10° C.) | EC50 [1]: ≥ 10 µM | EC50 [2]: 1 to 10 µM

SMILES: COc1cc(CN(Cc2cn(C3CC3)c3cc(Cl)c(F)cc3c2=O)[C@H]2CCCN(c3cccnc3)C2)ccn1 [Example 28, 7-chloro-1-cyclopropyl-6-fluoro-3-({[(2-methoxypyridin-4-yl)methyl][(3S)-1-(pyridin-3-yl)piperidin-3-yl]amino}methyl)-1,4-dihydroquinolin-4-one]
hSTING FTS binding assay (ΔT C.°) (human STING): ++ (ΔTm>10° C.) | EC50 [1]: ≤ 1 µM | EC50 [2]: ≤ 1 µM

SMILES: Cc1cc(CN(Cc2cn(C)c3ccccc3c2=O)[C@H]2C[C@H](F)CN(c3cccnc3)C2)ccn1 [Example 26, 3-({[(3S,5S)-5-fluoro-1-(pyridin-3-yl)piperidin-3-yl][(2-methylpyridin-4-yl)methyl]amino}methyl)-1-methyl-1,4-dihydroquinolin-4-one]
hSTING FTS binding assay (ΔT C.°) (human STING): ++ (ΔTm>10° C.) | EC50 [1]: ≤ 1 µM | EC50 [2]: ≤ 1 µM

SMILES: COc1cc(CN(Cc2cn(C)c3ccccc3c2=O)C2CCCN(c3cccnn3)C2)ccn1 (stereo not drawn) [Example 3, 3-({[(2-methoxypyridin-4-yl)methyl][1-(pyridazin-3-yl)piperidin-3-yl]amino}methyl)-1-methyl-1,4-dihydroquinolin-4-one]
hSTING FTS binding assay (ΔT C.°) (human STING): + (ΔTm<10° C.) | EC50 [1]: ≥ 10 µM | EC50 [2]: ≥ 10 µM

SMILES: Cc1cc(CN(Cc2cn(C)c3cc(Br)ccc3c2=O)[C@H]2CCCN(c3cccnc3)C2)ccn1 [Example 23, 7-bromo-1-methyl-3-({[(2-methylpyridin-4-yl)methyl][(3S)-1-(pyridin-3-yl)piperidin-3-yl]amino}methyl)-1,4-dihydroquinolin-4-one]
hSTING FTS binding assay (ΔT C.°) (human STING): ++ (ΔTm>10° C.) | EC50 [1]: ≤ 1 µM | EC50 [2]: ≤ 1 µM

SMILES: CCc1cc(CN(Cc2cn(C)c3ccccc3c2=O)C2CCCN(c3cccnc3)C2)ccn1 (stereo not drawn) [Example 21, 3-({[(2-ethylpyridin-4-yl)methyl][1-(pyridin-3-yl)piperidin-3-yl]amino}methyl)-1-methyl-1,4-dihydroquinolin-4-one]
hSTING FTS binding assay (ΔT C.°) (human STING): + (ΔTm<10° C.) | EC50 [1]: ≥ 10 µM | EC50 [2]: ≥ 10 µM

SMILES: Cn1cc(CN(Cc2ccncc2)[C@H]2CCCN(c3cccnc3)C2)c(=O)c2ccccc21 [Example 39, 1-methyl-3-({[(3S)-1-(pyridin-3-yl)piperidin-3-yl][(pyridin-4-yl)methyl]amino}methyl)-1,4-dihydroquinolin-4-one]
hSTING FTS binding assay (ΔT C.°) (human STING): ++ (ΔTm>10° C.) | EC50 [1]: ≤ 1 µM | EC50 [2]: 1 to 10 µM

SMILES: Cc1cc(CN(Cc2cn(C)c3ccccc3c2=O)[C@H]2CCCN(c3cc[nH]c(=O)c3)C2)ccn1 [Example 30, 1-methyl-3-({[(2-methylpyridin-4-yl)methyl][(3S)-1-(2-oxo-1,2-dihydropyridin-4-yl)piperidin-3-yl]amino}methyl)-1,4-dihydroquinolin-4-one]
hSTING FTS binding assay (ΔT C.°) (human STING): + (ΔTm<10° C.) | EC50 [1]: ≥ 10 µM | EC50 [2]: ≥ 10 µM

SMILES: Cc1cc(CN(Cc2cn(C)c3ccccc3c2=O)[C@H]2CCCN(c3cccnc3)C2)ccn1 [Example 5, 1-methyl-3-({[(2-methylpyridin-4-yl)methyl][(3S)-1-(pyridin-3-yl)piperidin-3-yl]amino}methyl)-1,4-dihydroquinolin-4-one]
hSTING FTS binding assay (ΔT C.°) (human STING): ++ (ΔTm>10° C.) | EC50 [1]: ≤ 1 µM | EC50 [2]: ≤ 1 µM

SMILES: Cn1cc(CN(Cc2ccns2)[C@H]2CCCN(c3cccnc3)C2)c(=O)c2ccccc21 [Example 55, 1-methyl-3-({[(3S)-1-(pyridin-3-yl)piperidin-3-yl][(1,2-thiazol-5-yl)methyl]amino}methyl)-1,4-dihydroquinolin-4-one]
hSTING FTS binding assay (ΔT C.°) (human STING): + (ΔTm<10° C.) | EC50 [1]: ≥ 10 µM | EC50 [2]: ≥ 10 µM

SMILES: Cc1cc(CN(Cc2cn(C)c3ccccc3c2=O)[C@@H]2CN(c3cccnc3)CC[C@H]2O)ccn1 [Example 24, 3-({[(3R,4R)-4-hydroxy-1-(pyridin-3-yl)piperidin-3-yl][(2-methylpyridin-4-yl)methyl]amino}methyl)-1-methyl-1,4-dihydroquinolin-4-one]
hSTING FTS binding assay (ΔT C.°) (human STING): + (ΔTm<10° C.) | EC50 [1]: ≥ 10 µM | EC50 [2]: ≥ 10 µM

SMILES: Cc1cc(CN(Cc2cn(C)c3ccccc3c2=O)[C@H]2CCCN(c3cc(=O)[nH]cn3)C2)ccn1 [Example 22, 1-methyl-3-({[(2-methylpyridin-4-yl)methyl][(3S)-1-(6-oxo-1,6-dihydropyrimidin-4-yl)piperidin-3-yl]amino}methyl)-1,4-dihydroquinolin-4-one]
hSTING FTS binding assay (ΔT C.°) (human STING): ++ (ΔTm>10° C.) | EC50 [1]: ≥ 10 µM | EC50 [2]: ≥ 10 µM

SMILES: Cc1ccc(N2CCC[C@H](N(Cc3ccnc(C)c3)Cc3cn(C)c4cc(N5CCNCC5=O)ccc4c3=O)C2)cn1 [Example 49, 1-methyl-3-({[(3S)-1-(6-methylpyridin-3-yl)piperidin-3-yl][(2-methylpyridin-4-yl)methyl]amino}methyl)-7-(2-oxopiperazin-1-yl)-1,4-dihydroquinolin-4-one]
hSTING FTS binding assay (ΔT C.°) (human STING): + (ΔTm<10° C.) | EC50 [1]: ≥ 10 µM | EC50 [2]: ≥ 10 µM

Other lines, results leading:

hSTING FTS binding assay (ΔT C.°) (human STING): ++ (ΔTm>10° C.) | EC50 [1]: ≤ 1 µM | EC50 [2]: 1 to 10 µM
SMILES: Cc1ccc(N2CCC[C@H](N(Cc3ccnc(C)c3)Cc3cn(C4CC4)c4cc(O)c(F)cc4c3=O)C2)cn1 [Example 59, 1-cyclopropyl-6-fluoro-7-hydroxy-3-({[(3S)-1-(6-methylpyridin-3-yl)piperidin-3-yl][(2-methylpyridin-4-yl)methyl]amino}methyl)-1,4-dihydroquinolin-4-one]

hSTING FTS binding assay (ΔT C.°) (human STING): ++ (ΔTm>10° C.) | EC50 [1]: ≤ 1 µM | EC50 [2]: ≤ 1 µM
SMILES: Cc1ccc(N2CCC[C@H](N(Cc3ccnc(C)c3)Cc3cn(C4CC4)c4cc(N5CCN[C@H](C)C5)c(F)cc4c3=O)C2)cn1 [Example 46, 1-cyclopropyl-6-fluoro-7-[(3R)-3-methylpiperazin-1-yl]-3-({[(3S)-1-(6-methylpyridin-3-yl)piperidin-3-yl][(2-methylpyridin-4-yl)methyl]amino}methyl)-1,4-dihydroquinolin-4-one]

hSTING FTS binding assay (ΔT C.°) (human STING): ++ (ΔTm>10° C.) | EC50 [1]: ≤ 1 µM | EC50 [2]: ≤ 1 µM
SMILES: COc1cc(CN(Cc2cn(C3CC3)c3cc(F)c(F)cc3c2=O)[C@H]2CCCN(c3ccc(C)nc3)C2)ccn1 [Example 31, 1-cyclopropyl-6,7-difluoro-3-({[(2-methoxypyridin-4-yl)methyl][(3S)-1-(6-methylpyridin-3-yl)piperidin-3-yl]amino}methyl)-1,4-dihydroquinolin-4-one]

hSTING FTS binding assay (ΔT C.°) (human STING): + (ΔTm<10° C.) | EC50 [1]: ≤ 1 µM | EC50 [2]: 1 to 10 µM
SMILES: Cc1ccc(N2CCC[C@H](N(Cc3ccnc(C)c3)Cc3cn(C4CC4)c4cc(Cl)ncc4c3=O)C2)cn1 [Example 56, 7-chloro-1-cyclopropyl-3-({[(3S)-1-(6-methylpyridin-3-yl)piperidin-3-yl][(2-methylpyridin-4-yl)methyl]amino}methyl)-1,4-dihydro-1,6-naphthyridin-4-one]

hSTING FTS binding assay (ΔT C.°) (human STING): ++ (ΔTm>10° C.) | EC50 [1]: ≤ 1 µM | EC50 [2]: ≤ 1 µM
SMILES: Cc1ccc(N2CCC[C@H](N(Cc3ccnc(C)c3)Cc3cn(C4COC4)c4ccccc4c3=O)C2)cn1 [Example 50, 3-({[(3S)-1-(6-methylpyridin-3-yl)piperidin-3-yl][(2-methylpyridin-4-yl)methyl]amino}methyl)-1-(oxetan-3-yl)-1,4-dihydroquinolin-4-one]

hSTING FTS binding assay (ΔT C.°) (human STING): ++ (ΔTm>10° C.) | EC50 [1]: ≤ 1 µM | EC50 [2]: ≤ 1 µM
SMILES: Cc1ccc(N2CCC[C@H](N(Cc3ccnc(C)c3)Cc3cn(C)c4cc(Br)ccc4c3=O)C2)cn1 [Example 37, 7-bromo-1-methyl-3-({[(3S)-1-(6-methylpyridin-3-yl)piperidin-3-yl][(2-methylpyridin-4-yl)methyl]amino}methyl)-1,4-dihydroquinolin-4-one]

hSTING FTS binding assay (ΔT C.°) (human STING): ++ (ΔTm>10° C.) | EC50 [1]: ≤ 1 µM | EC50 [2]: ≤ 1 µM
SMILES: COc1cc2c(cc1F)c(=O)c(CN(Cc1ccnc(C)c1)[C@H]1CCCN(c3ccc(C)nc3)C1)cn2C1CC1 [Example 45, 1-cyclopropyl-6-fluoro-7-methoxy-3-({[(3S)-1-(6-methylpyridin-3-yl)piperidin-3-yl][(2-methylpyridin-4-yl)methyl]amino}methyl)-1,4-dihydroquinolin-4-one]
